Source: ChEMBL document CHEMBL5725313, “Highly selective c-Met inhibitors as anticancer agents” (2017)

Molecular target: Hepatocyte growth factor receptor (Homo sapiens, UniProt P08581)
Experiment: c-Met In Vitro Kinase Assay: Optiplate-384 well plate (PerKinElmer), kinase buffer (50 mM Hepes pH7.5, 25 mM NaCl, 2 mM DTT, 0.01% Tween 20, 5 mM Mg2+, 0.5 mM Mn2+), c-Met kinase (1038-1346AA, prepared in-house), c-Met substrate (PerKinElmer, #TRF0127-M), Lance@Eu-W 1024-anti-phosphotyrosine (PT66), (PerKinElmer, #AD0068), ATP (Invitrogen), DMSO (Sigma, #34869), water (Millipore, model Milli-Q). A mixture of c-Met kinase (final concentration 12.5 nM) and test compound (final DMSO is 0.5%) is pre-incubated at 30° C. for 20 min. Then ATP (final concentration 2.5 uM) and kinase substrate (final concentration 50 nM) are added. The resulting mixture is kept at 30° C. for 1 hr, followed by addition of the c-Met antibody. After 1 hr, the plate is read at 615 nm and 665 nm. The ratio of absorption values at 665 nm and 615 nm is calculated and used for the data analysis as follows. This assay has a Minimum Significant Ratio (MSA) of 2-3.

Sequence of Hepatocyte growth factor receptor (P08581 whole entry): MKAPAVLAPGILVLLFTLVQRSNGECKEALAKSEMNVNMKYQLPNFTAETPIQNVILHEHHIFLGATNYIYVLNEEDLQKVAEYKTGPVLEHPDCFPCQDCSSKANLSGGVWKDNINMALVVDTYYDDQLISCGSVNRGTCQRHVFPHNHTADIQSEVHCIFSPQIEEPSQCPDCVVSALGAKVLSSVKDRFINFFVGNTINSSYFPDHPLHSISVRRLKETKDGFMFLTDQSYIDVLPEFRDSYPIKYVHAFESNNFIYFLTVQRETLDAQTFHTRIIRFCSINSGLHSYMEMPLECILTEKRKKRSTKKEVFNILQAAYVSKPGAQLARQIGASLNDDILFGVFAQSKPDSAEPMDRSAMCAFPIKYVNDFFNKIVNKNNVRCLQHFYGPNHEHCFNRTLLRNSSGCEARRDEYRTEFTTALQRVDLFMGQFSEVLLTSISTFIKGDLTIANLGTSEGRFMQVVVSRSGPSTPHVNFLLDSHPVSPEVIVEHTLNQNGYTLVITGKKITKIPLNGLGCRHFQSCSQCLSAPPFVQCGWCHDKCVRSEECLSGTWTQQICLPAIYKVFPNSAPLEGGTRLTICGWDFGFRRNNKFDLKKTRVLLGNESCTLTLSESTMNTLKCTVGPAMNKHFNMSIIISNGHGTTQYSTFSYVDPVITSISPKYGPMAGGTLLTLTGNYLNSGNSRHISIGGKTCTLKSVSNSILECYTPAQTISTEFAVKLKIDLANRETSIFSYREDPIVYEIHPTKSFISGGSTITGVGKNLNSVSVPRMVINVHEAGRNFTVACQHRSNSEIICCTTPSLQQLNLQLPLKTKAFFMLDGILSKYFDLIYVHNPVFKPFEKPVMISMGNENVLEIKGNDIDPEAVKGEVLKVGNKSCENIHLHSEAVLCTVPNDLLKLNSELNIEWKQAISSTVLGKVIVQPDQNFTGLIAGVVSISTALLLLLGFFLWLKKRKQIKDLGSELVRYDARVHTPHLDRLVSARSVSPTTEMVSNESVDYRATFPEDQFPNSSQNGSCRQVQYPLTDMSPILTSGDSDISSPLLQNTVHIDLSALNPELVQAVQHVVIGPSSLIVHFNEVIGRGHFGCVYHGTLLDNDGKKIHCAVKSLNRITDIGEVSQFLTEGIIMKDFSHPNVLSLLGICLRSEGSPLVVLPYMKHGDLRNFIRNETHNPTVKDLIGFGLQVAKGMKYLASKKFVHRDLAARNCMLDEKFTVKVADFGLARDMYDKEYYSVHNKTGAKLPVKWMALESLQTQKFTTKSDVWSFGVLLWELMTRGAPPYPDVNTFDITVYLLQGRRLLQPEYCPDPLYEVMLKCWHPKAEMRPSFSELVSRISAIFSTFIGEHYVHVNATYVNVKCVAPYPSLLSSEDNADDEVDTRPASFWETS

Cn1cc2c(F)c(C(F)(F)c3nnc4ccc(-c5cncc(F)c5)nn34)ccc2n1
IC50: 261 nM

Cn1cc2c(F)c(C(F)(F)c3nnc4ccc(-c5cncc(Cl)c5)nn34)ccc2n1
IC50: 194 nM

Cc1cncc(-c2ccc3nnc(C(F)(F)c4ccc5nn(C)cc5c4F)n3n2)c1
IC50: 119 nM

CNC(=O)c1ccc(-c2ccc3nnc(C(F)(F)c4ccc5nn(C)cc5c4F)n3n2)cn1
IC50: 149 nM
